# Laboratory results: patent US12692254B2, “Benzimidazole inhibitors of PAD enzymes” (BRISTOL-MYERS SQUIBB COMPANY, priority 2018, dated 2026)
# Biological target: human PAD4 (hPAD4) (Homo sapiens, UniProt Q9UM07)
# Assay: RFMS human PAD4 functional assay (rapid-fire mass spectrum)
# Assay type: biochemical
# Conditions: 5 nM hPAD4 enzyme, 250 μM BAEE, 50 μM Calcium; 30 min preincubation, 90 min reaction at 37° C.
# Method in brief: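 PAD4 (10 nM) preincubated 30 min with compound (top final 50 μM), then BAEE substrate added in pH 7.5 HEPES buffer with DTT, 50 μM calcium, TPEN; 90 min at 37° C. After TCA quench, citrulline derivatized with phenyl glyoxal (4 mM final, 30 min, 37° C) and quantified by RapidFire MS against internal standard.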
# Chain of human PAD4 (hPAD4) (Q9UM07 whole entry): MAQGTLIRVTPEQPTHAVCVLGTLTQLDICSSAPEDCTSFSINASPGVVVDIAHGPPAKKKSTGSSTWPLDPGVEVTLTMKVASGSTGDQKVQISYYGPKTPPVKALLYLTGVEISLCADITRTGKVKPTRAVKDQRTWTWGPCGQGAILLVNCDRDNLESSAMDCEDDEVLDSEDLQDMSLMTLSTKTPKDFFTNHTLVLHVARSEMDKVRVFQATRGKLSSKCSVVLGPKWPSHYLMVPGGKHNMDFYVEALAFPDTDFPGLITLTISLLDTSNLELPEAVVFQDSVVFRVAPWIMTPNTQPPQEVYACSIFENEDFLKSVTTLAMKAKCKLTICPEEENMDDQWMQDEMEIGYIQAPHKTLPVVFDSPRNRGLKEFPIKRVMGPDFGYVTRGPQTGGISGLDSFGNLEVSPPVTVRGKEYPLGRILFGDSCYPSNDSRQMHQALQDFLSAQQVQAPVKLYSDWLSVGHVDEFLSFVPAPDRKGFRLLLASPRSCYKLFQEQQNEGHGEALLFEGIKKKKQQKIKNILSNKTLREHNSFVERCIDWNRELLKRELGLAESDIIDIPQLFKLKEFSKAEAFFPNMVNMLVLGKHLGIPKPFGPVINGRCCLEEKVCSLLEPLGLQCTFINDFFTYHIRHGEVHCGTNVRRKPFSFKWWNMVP
row,SMILES,IC50 [nM]
1,"COc1cc(C(=O)N2C[C@H](N)C[C@@H](F)C2)cc2nc(-c3cc4ccccc4n3CC3CC3)n(Cc3cnn(C)c3)c12 [Example 257, (3R,5R)-1-{2-[1-(cyclopropylmethyl)-1H-indol-2-yl]-7-methoxy-1-[(1-methyl-1H-pyrazol-4-yl)methyl]-1H-1,3-benzodiazole-5-carbonyl}-5-fluoropiperidin-3-amine]",41
2,"COc1cc(C(=O)N2C[C@H]3CC[C@@H]2[C@@H]3N)cc2nc(-c3cc4ccccc4n3CC3CC3)n(Cc3cnn(Cc4ccccc4)c3)c12 [Example 259, (1R,4R,7R)-2-{1-[(1-benzyl-1H-pyrazol-4-yl)methyl]-2-[1-(cyclopropylmethyl)-1H-indol-2-yl]-7-methoxy-1H-1,3-benzodiazole-5-carbonyl}-2-azabicyclo[2.2.1]heptan-7-amine]",44
3,"COc1cc(C(=O)N2C[C@H]3CC[C@@H]2[C@@H]3N)cc2nc(-c3cc4ccccc4n3CC3CC3)n(CCCOc3ccc(C#N)cc3)c12 [Example 260, 4-(3-{5-[(1R,4R,7R)-7-amino-2-azabicyclo[2.2.1]heptane-2-carbonyl]-2-[1-(cyclopropylmethyl)-1H-indol-2-yl]-7-methoxy-1H-1,3-benzodiazol-1-yl}propoxy)benzonitrile]",48
4,"COc1cc(C(=O)N2C[C@H](N)C[C@@H](F)C2)cc2nc(-c3cc4ccccc4n3CC3CC3)n(Cc3cnn(-c4ccccc4)c3)c12 [Example 261, (3R,5R)-1-{2-[1-(cyclopropylmethyl)-1H-indol-2-yl]-7-methoxy-1-[(1-phenyl-1H-pyrazol-4-yl)methyl]-1H-1,3-benzodiazole-5-carbonyl}-5-fluoropiperidin-3-amine]",49
5,"COc1cc(C(=O)N2C[C@H]3CC[C@@H]2[C@@H]3N)cc2nc(-c3cc4cccnc4n3CC3CC3)n(C[C@H]3CCNC3)c12 [Example 263, (1R,4R,7R)-2-{2-[1-(cyclopropylmethyl)-1H-pyrrolo[2,3-b]pyridin-2-yl]-7-methoxy-1-{[(3S)-pyrrolidin-3-yl]methyl}-1H-1,3-benzodiazole-5-carbonyl}-2-azabicyclo[2.2.1]heptan-7-amine]",20
6,"COc1cc(C(=O)N2CC3CCC2[C@@H]3N)cc2nc(-c3cc4ccccc4n3CC3CC3)n(CC3CCS(=O)(=O)C3)c12 (stereo partly drawn) [Example 264, ((7R)-7-amino-2-azabicyclo[2.2.1]heptan-2-yl)(2-(1-(cyclopropylmethyl)-1H-indol-2-yl)-1-((1,1-dioxidotetrahydrothiophen-3-yl)methyl)-7-methoxy-1H-benzo[d]imidazol-5-yl)methanone]",57
7,"COc1cc(C(=O)N2C[C@H]3CC[C@@H]2[C@@H]3N)cc2nc(-c3cc4ccccc4n3CC3CC3)n(Cc3ccnn3C)c12 [Example 265, (1R,4R,7R)-2-{2-[1-(cyclopropylmethyl)-1H-indol-2-yl]-7-methoxy-1-[(1-methyl-1H-pyrazol-5-yl)methyl]-1H-1,3-benzodiazole-5-carbonyl}-2-azabicyclo[2.2.1]heptan-7-amine]",65
8,"COc1cc(C(=O)N2C[C@H](N)C[C@@H](F)C2)cc2nc(-c3cc4ccccc4n3CC3CC3)n(Cc3cn[nH]c3)c12 [Example 266, (3R,5R)-1-{2-[1-(cyclopropylmethyl)-1H-indol-2-yl]-7-methoxy-1-[(1H-pyrazol-4-yl)methyl]-1H-1,3-benzodiazole-5-carbonyl}-5-fluoropiperidin-3-amine]",82
9,"COc1cc(C(=O)N2CCC[C@@H](N)C2)cc2nc(-c3cc4ccccc4n3CC3CC3)n(Cc3cnn(C)c3)c12 [Example 267, (3R)-1-{2-[1-(cyclopropylmethyl)-1H-indol-2-yl]-7-methoxy-1-[(1-methyl-1H-pyrazol-4-yl)methyl]-1H-1,3-benzodiazole-5-carbonyl}piperidin-3-amine]",98
10,"COc1cc(C(=O)N2C[C@H]3CC[C@@H]2[C@@H]3N)cc2nc(-c3cc4ccccc4n3CC3CC3)n(Cc3ccon3)c12 [Example 268, (1R,4R,7R)-2-{2-[1-(cyclopropylmethyl)-1H-indol-2-yl]-7-methoxy-1-[(1,2-oxazol-3-yl)methyl]-1H-1,3-benzodiazole-5-carbonyl}-2-azabicyclo[2.2.1]heptan-7-amine]",114
11,"COc1cc(C(=O)N2C[C@H]3CC[C@@H]2[C@@H]3N)cc2nc(-c3cc4ccccc4n3CC3CC3)n(Cc3csc(C)n3)c12 [Example 269, (1R,4R,7R)-2-{2-[1-(cyclopropylmethyl)-1H-indol-2-yl]-7-methoxy-1-[(2-methyl-1,3-thiazol-4-yl)methyl]-1H-1,3-benzodiazole-5-carbonyl}-2-azabicyclo[2.2.1]heptan-7-amine]",127
12,COc1cc(C(=O)N2CC3CCC2[C@@H]3N)cc2nc(-c3cc4ccccc4n3CC3CC3)n(Cc3ccccc3)c12 (stereo partly shown) [Example 270],140
13,"COc1cc(C(=O)N2C[C@H](N)C[C@@H](F)C2)cc2nc(-c3cc4ccccc4n3CC3CC3)n(CCCOc3ccc(C#N)cc3)c12 [Example 271, 4-(3-{5-[(3R,5R)-3-amino-5-fluoropiperidine-1-carbonyl]-2-[1-(cyclopropylmethyl)-1H-indol-2-yl]-7-methoxy-1H-1,3-benzodiazol-1-yl}propoxy)benzonitrile]",145
14,"COc1cc(C(=O)N2C[C@H]3CC[C@@H]2[C@@H]3N)cc2nc(-c3cc4ccccc4n3CC3CC3)n(Cc3ccncc3)c12 [Example 272, (1R,4R,7R)-2-(2-[1-(cyclopropylmethyl)-1H-indol-2-yl]-7-methoxy-1-[(pyridin-4-yl)methyl]-1H-1,3-benzodiazole-5-carbonyl}-2-azabicyclo[2.2.1]heptan-7-amine]",179
15,"COc1cc(C(=O)C2C[C@H]3CC[C@H]2[C@@H]3N)cc2nc(-c3cc4ccccc4n3CC3CC3)n(C[C@H]3CCNC3)c12 (stereo partly drawn) [Example 273, (1R,4R,7R)-2-{2-[1-(cyclopropylmethyl)-1H-indol-2-yl]-7-methoxy-1-{[(3S)-pyrrolidin-3-yl]methyl}-1H-1,3-benzodiazole-5-carbonyl}bicyclo[2.2.1]heptan-7-amine]",33
16,"COc1cc(C(=O)N2C[C@H](N)C[C@@H](F)C2)cc2nc(-c3cc4ccccc4n3CC3CC3)n(CCCN3CCCC3=O)c12 [Example 274, 1-(3-{5-[(3R,5R)-3-amino-5-fluoropiperidine-1-carbonyl]-2-[1-(cyclopropylmethyl)-1H-indol-2-yl]-7-methoxy-1H-1,3-benzodiazol-1-yl}propyl)pyrrolidin-2-one]",261
17,"COc1cc(C(=O)N2C[C@H]3CC[C@@H]2[C@@H]3N)cc2nc(-c3cc4ccccc4n3CC3CC3)n(CC3CCC(=O)N3)c12 (stereo partly drawn) [Example 275, 5-({5-[(1R,4R,7R)-7-amino-2-azabicyclo[2.2.1]heptane-2-carbonyl]-2-[1-(cyclopropylmethyl)-1H-indol-2-yl]-7-methoxy-1H-1,3-benzodiazol-1-yl}methyl)pyrrolidin-2-one]",298
18,"COc1cc(C(=O)N2C[C@H](N)C[C@@H](F)C2)cc2nc(-c3cc4ccccc4n3CC3CC3)n(Cc3cc(C)nn3C)c12 [Example 276, (3R,5R)-1-{2-[1-(cyclopropylmethyl)-1H-indol-2-yl]-1-[(1,3-dimethyl-1H-pyrazol-5-yl)methyl]-7-methoxy-1H-1,3-benzodiazole-5-carbonyl}-5-fluoropiperidin-3-amine]",298
19,"COc1cc(C(=O)N2C[C@H](N)C[C@@H](F)C2)cc2nc(-c3cc4ccccc4n3CC3CC3)n(Cc3ccnn3C)c12 [Example 277, (3R,5R)-1-{2-[1-(cyclopropylmethyl)-1H-indol-2-yl]-7-methoxy-1-[(1-methyl-1H-pyrazol-5-yl)methyl]-1H-1,3-benzodiazole-5-carbonyl}-5-fluoropiperidin-3-amine]",319
20,"COc1cc(C(=O)N2C[C@H](N)C[C@@H](F)C2)cc2nc(-c3cc4ccccc4n3CC3CC3)n(Cc3ccon3)c12 [Example 278, (3R,5R)-1-{2-[1-(cyclopropylmethyl)-1H-indol-2-yl]-7-methoxy-1-[(1,2-oxazol-3-yl)methyl]-1H-1,3-benzodiazole-5-carbonyl)-5-fluoropiperidin-3-amine]",460
21,"COc1cc(C(=O)N2C[C@H]3CC[C@@H]2[C@@H]3N)cc2nc(-c3cc4ccccc4n3CC3CC3)n(CCN3CCNC3=O)c12 [Example 279, 1-(2-{5-[(1R,4R,7R)-7-amino-2-azabicyclo[2.2.1]heptane-2-carbonyl]-2-[1-(cyclopropylmethyl)-1H-indol-2-yl]-7-methoxy-benzodiazol-1-yl}ethyl)imidazolidin-2-one]",491
22,"COc1cc(C(=O)N2C[C@H]3CC[C@@H]2[C@@H]3N)cc2nc(-c3cc4ccccc4n3CC3CC3)n(Cc3ccccn3)c12 [Example 280, (1R,4R,7R)-2-{2-[1-(cyclopropylmethyl)-1H-indol-2-yl]-7-methoxy-1-[(pyridin-2-yl)methyl]-1H-1,3-benzodiazole-5-carbonyl}-2-azabicyclo[2.2.1]heptan-7-amine]",555
23,"COc1cc(C(=O)N2C[C@H](N)C[C@@H](F)C2)cc2nc(-c3cc4ccccc4n3CC3CC3)n(Cc3ccccc3)c12 [Example 282, (3R,5R)-1-{1-benzyl-2-[1-(cyclopropylmethyl)-1H-indol-2-yl]-7-methoxy-1H-1,3-benzodiazole-5-carbonyl}-5-fluoropiperidin-3-amine]",780
24,"COc1cc(C(=O)N2C[C@H](N)C[C@@H](F)C2)cc2nc(-c3cc4ccccc4n3CC3CC3)n(CC3CCC(=O)N3)c12 (stereo partly drawn) [Example 283, 5-({5-[(3R,5R)-3-amino-5-fluoropiperidine-1-carbonyl]-2-[1-(cyclopropylmethyl)-1H-indol-2-yl]-7-methoxy-1H-1,3-benzodiazol-1-yl}methyl)pyrrolidin-2-one]",895
25,"COC(=O)NCCn1c(-c2cc3cccnc3n2CC2CC2)nc2cc(C(=O)N3C[C@H]4CC[C@@H]3[C@@H]4N)cc(OC)c21 [Example 284, methyl N-(2-{5-[(1R,4R,7R)-7-amino-2-azabicyclo[2.2.1]heptane-2-carbonyl]-2-[1-(cyclopropylmethyl)-1H-pyrrolo[2,3-b]pyridin-2-yl]-7-methoxy-1H-1,3-benzodiazol-1-yl}ethyl)carbamate]",925
